Measured values from patent EP4635500A1, “THERAPEUTIC AGENT FOR BACTERIAL INFECTION” (Sumitomo Pharma Co., Ltd., priority 2022, dated 2024).
Read-outs that look alike come from different tables or passages of the source.

Test system: Enterobacterales
Assay: MIC, broth microdilution, CDC/FDA Antibiotic Resistance Isolate Bank (Example 7, Tables 8, 11, 12)
Assay type: cell-based
Conditions: for MIC: read-out: MIC; for MIC50 / MIC90: carbapenemase-producing Enterobacterales; for MIC50: read-out: MIC50; for MIC90: read-out: MIC90

NCC[C@H](O)C(=O)N[C@@H]1C[C@H](N)[C@@H](O[C@H]2O[C@H](CN)[C@@H](O)[C@H](O)[C@H]2O)[C@H](O)[C@H]1O[C@H]1O[C@H](CO)[C@@H](O)[C@H](N)[C@H]1O [Amikacin, amikacin]
1 µg/mL: MIC (Escherichia coli, KUB No. 5769, AR Bank # 373) | MIC (Escherichia coli, KUB No. 5770, AR Bank # 374) | MIC (Escherichia coli, KUB No. 5774, AR Bank # 378) | MIC (Escherichia, KUB No. 57, AR Bank # 436 (row cut off)) | MIC (Klebsiella oxytoca, KUB No. 5776, AR Bank # 380) | MIC (Klebsiella pneumoniae, KUB No. 5531, AR Bank# 34) | MIC (Klebsiella pneumoniae, KUB No. 5540, AR Bank# 43) | MIC (Klebsiella pneumoniae, KUB No. 5584, AR Bank # 87) | MIC (Morganella morganii, KUB No. 5630, AR Bank # 133) | MIC (Proteus mirabilis, KUB No. 5652, AR Bank # 155) | MIC (Providencia rettgeri, KUB No. 5579, AR Bank # 82) | MIC (Serratia marcescens, KUB No. 5588, AR Bank # 91) | MIC (Serratia marcescens, KUB No. 5596, AR Bank # 99) | MIC (Serratia marcescens, KUB No. 5619, AR Bank # 122) | MIC (Serratia marcescens, KUB No. 5620, AR Bank # 123) | MIC (Serratia marcescens, KUB No. 5628, AR Bank # 131)
2 µg/mL: MIC (Escherichia coli, KUB No. 5768, AR Bank # 372) | MIC (Klebsiella aerogenes, Enterobacter aerogenes, KUB No. 5559, AR Bank # 62) | MIC (Klebsiella aerogenes, Enterobacter aerogenes, KUB No. 5571, AR Bank # 74) | MIC (Klebsiella aerogenes, Enterobacter aerogenes, KUB No. 5658, AR Bank # 161) | MIC (Klebsiella pneumoniae, KUB No. 5655, AR Bank # 158) | MIC (Klebsiella pneumoniae, KUB No. 5772, AR Bank # 376) | MIC (Klebsiella pneumoniae, Klebsiella pneumoniae KUB No. 5809, AR Bank #504) | MIC (Proteus mirabilis, KUB No. 5773, AR Bank # 377) | MIC (Serratia marcescens, KUB No. 5618, AR Bank # 121) | MIC (Serratia marcescens, KUB No. 5621, AR Bank # 124) | MIC (Serratia marcescens, KUB No. 5627, AR Bank # 130) | MIC (Serratia marcescens, Serratia marcescens KUB No. 5826, AR Bank #521)
64 µg/mL: MIC (Klebsiella pneumoniae, KUB No. 5565, AR Bank # 68) | MIC (Klebsiella pneumoniae, KUB No. 5594, AR Bank # 97) | MIC (Serratia marcescens, Serratia marcescens KUB No. 5825, AR Bank #520) | MIC90 (Serine carbapenemase (N=61))
4 µg/mL: MIC (Escherichia coli, KUB No. 5766, AR Bank # 370) | MIC (Klebsiella oxytoca, KUB No. 5771, AR Bank # 375) | MIC (Klebsiella pneumoniae, KUB No. 5536, AR Bank# 39) | MIC (Klebsiella pneumoniae, KUB No. 5577, AR Bank # 80) | MIC (Klebsiella pneumoniae, KUB No. 5623, AR Bank # 126) | MIC (Klebsiella pneumoniae, Klebsiella pneumoniae KUB No. 5827, AR Bank #522) | MIC (Kluyvera ascorbata, KUB No. 5641, AR Bank # 144) | MIC (Morganella morganii, KUB No. 5554, AR Bank# 57) | MIC (Proteus mirabilis, KUB No. 5556, AR Bank# 59) | MIC (Proteus mirabilis, KUB No. 5653, AR Bank # 156) | MIC50 (Serine carbapenemase (N=61))
> 64 µg/mL: MIC (Escherichia coli, KUB No. 5781, AR Bank # 435) | MIC (Klebsiella ozaenae, KUB No. 5548, AR Bank# 51) | MIC (Klebsiella pneumoniae, KUB No. 5538, AR Bank# 41) | MIC (Klebsiella pneumoniae, KUB No. 5546, AR Bank# 49) | MIC (Klebsiella pneumoniae, KUB No. 5572, AR Bank # 75) | MIC (Klebsiella pneumoniae, KUB No. 5576, AR Bank # 79) | MIC (Klebsiella pneumoniae, KUB No. 5603, AR Bank # 106) | MIC (Klebsiella pneumoniae, KUB No. 5604, AR Bank # 107) | MIC (Klebsiella pneumoniae, KUB No. 5635, AR Bank # 138) | MIC (Klebsiella pneumoniae, KUB No. 5636, AR Bank # 139) | MIC (Klebsiella pneumoniae, KUB No. 5637, AR Bank # 140) | MIC (Klebsiella pneumoniae, KUB No. 5638, AR Bank # 141) | MIC (Klebsiella pneumoniae, KUB No. 5639, AR Bank # 142) | MIC (Klebsiella pneumoniae, KUB No. 5640, AR Bank # 143) | MIC (Klebsiella pneumoniae, KUB No. 5645, AR Bank # 148) | MIC (Klebsiella pneumoniae, KUB No. 5650, AR Bank # 153) | MIC (Klebsiella pneumoniae, Klebsiella pneumoniae KUB No. 5812, AR Bank #507) | MIC (Proteus mirabilis, KUB No. 5656, AR Bank # 159) | MIC (Salmonella enterica, Salmonella Senftenberg, KUB No. 5624, AR Bank # 127) | MIC90 (Metallo-β-lactamase (N = 47))
0.5 µg/mL: MIC (Escherichia coli, KUB No. 5767, AR Bank # 371) | MIC (Escherichia coli, KUB No. 5779, AR Bank # 433) | MIC (Klebsiella aerogenes, Enterobacter aerogenes, KUB No. 5777, AR Bank # 431) | MIC (Klebsiella oxytoca, KUB No. 5568, AR Bank # 71) | MIC (Klebsiella oxytoca, KUB No. 5644, AR Bank # 147) | MIC (Klebsiella pneumoniae, KUB No. 5612, AR Bank # 115) | MIC (Klebsiella pneumoniae, KUB No. 5657, AR Bank # 160)
16 µg/mL: MIC (Escherichia coli, KUB No. 5780, AR Bank # 434) | MIC (Klebsiella pneumoniae, KUB No. 5541, AR Bank# 44) | MIC (Klebsiella pneumoniae, KUB No. 5543, AR Bank# 46) | MIC (Klebsiella pneumoniae, KUB No. 5642, AR Bank # 145) | MIC (Klebsiella pneumoniae, KUB No. 5643, AR Bank # 146) | MIC (Klebsiella pneumoniae, KUB No. 5759, AR Bank # 363) | MIC (Klebsiella pneumoniae, KUB No. 5760, AR Bank # 364) | MIC (Klebsiella pneumoniae, Klebsiella pneumoniae KUB No. 5829, AR Bank #524) | MIC50 (Metallo-β-lactamase (N = 47))
32 µg/mL: MIC (Klebsiella pnemnonine, KUB No. 5758, AR Bank # 362) | MIC (Klebsiella pneumoniae, KUB No. 55, AR Bank# 47) | MIC (Klebsiella pneumoniae, KUB No. 5537, AR Bank# 40) | MIC (Klebsiella pneumoniae, KUB No. 5595, AR Bank # 98) | MIC (Klebsiella pneumoniae, KUB No. 5609, AR Bank # 112) | MIC (Klebsiella pneumoniae, KUB No. 5610, AR Bank # 113) | MIC (Klebsiella pneumoniae, KUB No. 5614, AR Bank # 117) | MIC (Klebsiella pneumoniae, KUB No. 5617, AR Bank # 120) | MIC (Klebsiella pneumoniae, KUB No. 5622, AR Bank # 125) | MIC (Klebsiella pneumoniae, KUB No. 5626, AR Bank # 129) | MIC (Klebsiella pneumoniae, KUB No. 5649, AR Bank # 152) | MIC (Klebsiella pneumoniae, KUB No. 5757, AR Bank # 361) | MIC (Klebsiella pneumoniae, Klebsiella pneumoniae KUB No. 5784, AR Bank #438) | MIC (Klebsiella pneumoniae, Klebsiella pneumoniae KUB No. 5797, AR Bank #453) | MIC (Klebsiella pneumoniae, Klebsiella pneumoniae KUB No. 5811, AR Bank #506) | MIC (Klebsiella pneumoniae, Klebsiella pneumoniae KUB No. 5830, AR Bank #525)
8 µg/mL: MIC (Klebsiella ozaenae, KUB No. 5593, AR Bank # 96) | MIC (Klebsiella pneumoniae, KUB No. 5563, AR Bank # 66) | MIC (Klebsiella pneumoniae, KUB No. 5573, AR Bank # 76) | MIC (Klebsiella pneumoniae, KUB No. 5606, AR Bank # 109) | MIC (Klebsiella pneumoniae, KUB No. 5632, AR Bank # 135) | MIC (Klebsiella pneumoniae, Klebsiella pneumoniae KUB No. 5810, AR Bank #505) | MIC (Klebsiella pneumoniae, Klebsiella pneumoniae KUB No. 5828, AR Bank #523) | MIC (Proteus mirabilis, KUB No. 5775, AR Bank # 379) | MIC (Serratia marcescens, Serratia marcescens KUB No. 5822, AR Bank #517)
